From US10168342B2, “Lipid probes and uses thereof” (THE SCRIPPS RESEARCH INSTITUTE, priority 2015, dated 2019) come the findings set out here.

Common to all, as to assay: isoTOP-ABPP mapping of AEA-DA-modified peptides in Neuro2a cells
Common to all, as to type: cell-based

The target of experiment [1] is T1, AEA-DA-modified peptides in Neuro2a cells (Mus musculus, UniProt Q99J47).
T1 construct: endogenous in cells; host or cells: Neuro2a
The note with it: AEA-DA-modified peptide DHRS7B Q99J47 284-300, SEQ ID NO 31; probe 100 μM, 12 replicates.

In experiment [2] the target is T2, AEA-DA-modified peptides in Neuro2a cells (Mus musculus, UniProt P62259).
T2 construct: endogenous in cells; host or cells: Neuro2a
To be noted: AEA-DA-modified peptide YWHAE P62259 197-226, SEQ ID NO 121; probe 100 μM, 12 replicates.

The target of experiment [3] is T3, AEA-DA-modified peptides in Neuro2a cells (Mus musculus, UniProt Q8BFY9).
T3 construct: endogenous in cells; host or cells: Neuro2a
To be noted: AEA-DA-modified peptide TNPO1 Q8BFY9 45-65, SEQ ID NO 114; probe 100 μM, 12 replicates.

The target of experiment [4] is T4, AEA-DA-modified peptides in Neuro2a cells (Mus musculus, UniProt Q8BWM0).
T4 construct: endogenous in cells; host or cells: Neuro2a
To be noted: AEA-DA-modified peptide PTGES2 Q8BWM0 269-279, SEQ ID NO 92; probe 100 μM, 12 replicates.

Experiment [5] addresses T5, AEA-DA-modified peptides in Neuro2a cells (Mus musculus, UniProt Q8VC28).
T5 construct: endogenous in cells; host or cells: Neuro2a
The note with it: AEA-DA-modified peptide AKR1C13 Q8VC28 48-69, SEQ ID NO 7; probe 100 μM, 12 replicates.

Experiment [6] addresses T6, AEA-DA-modified peptides in Neuro2a cells (Mus musculus, UniProt O88545).
T6 construct: endogenous in cells; host or cells: Neuro2a
The note with it: AEA-DA-modified peptide COPS6 O88545 274-295, SEQ ID NO 24; probe 100 μM, 12 replicates.

The target of experiment [7] is T7, AEA-DA-modified peptides in Neuro2a cells (Mus musculus, UniProt Q9CQ45).
T7 construct: endogenous in cells; host or cells: Neuro2a
To be noted: AEA-DA-modified peptide NENF Q9CQ45 84-94, SEQ ID NO 68; probe 100 μM, 12 replicates.

Experiment [8] has as its target T8, AEA-DA-modified peptides in Neuro2a cells (Mus musculus, UniProt P67778).
T8 construct: endogenous in cells; host or cells: Neuro2a
To be noted: AEA-DA-modified peptide PHB P67778 5-12, SEQ ID NO 85; probe 100 μM, 12 replicates.

Experiment [9] deals with T9, AEA-DA-modified peptides in Neuro2a cells (Mus musculus, UniProt Q9D379).
T9 construct: endogenous in cells; host or cells: Neuro2a
The note with it: AEA-DA-modified peptide EPHX1 Q9D379 296-329, SEQ ID NO 39; probe 100 μM, 12 replicates.

For experiment [10], the target named is T10, AEA-DA-modified peptides in Neuro2a cells (Mus musculus, UniProt P00375).
T10 construct: endogenous in cells; host or cells: Neuro2a
To be noted: AEA-DA-modified peptide DHFR P00375 20-34, SEQ ID NO 30; probe 100 μM, 12 replicates.

Experiment [11] deals with T11, AEA-DA-modified peptides in Neuro2a cells (Mus musculus, UniProt Q91YE6).
T11 construct: endogenous in cells; host or cells: Neuro2a
The note with it: AEA-DA-modified peptide IPO9 Q91YE6 777-788, SEQ ID NO 54; probe 100 μM, 12 replicates.

The target of experiment [12] is T12, AEA-DA-modified peptides in Neuro2a cells (Mus musculus, UniProt P59325).
T12 construct: endogenous in cells; host or cells: Neuro2a
The note with it: AEA-DA-modified peptide EIF5 P59325 272-287, SEQ ID NO 36; probe 100 μM, 12 replicates.

T7 sequence (Q9CQ45 31-171): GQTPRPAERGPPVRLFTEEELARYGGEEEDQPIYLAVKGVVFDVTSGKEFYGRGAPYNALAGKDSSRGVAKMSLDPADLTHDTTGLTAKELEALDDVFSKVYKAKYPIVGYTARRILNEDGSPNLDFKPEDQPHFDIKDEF
T6 sequence (O88545 whole entry): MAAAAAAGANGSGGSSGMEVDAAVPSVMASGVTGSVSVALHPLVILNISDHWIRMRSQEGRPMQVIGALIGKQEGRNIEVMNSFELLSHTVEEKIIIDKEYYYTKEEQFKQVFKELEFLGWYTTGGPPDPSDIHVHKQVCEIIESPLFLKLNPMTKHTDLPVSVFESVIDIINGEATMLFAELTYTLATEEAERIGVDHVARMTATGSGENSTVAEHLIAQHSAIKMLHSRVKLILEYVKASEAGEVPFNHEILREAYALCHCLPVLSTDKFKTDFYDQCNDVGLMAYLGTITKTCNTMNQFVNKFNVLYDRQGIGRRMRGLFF
T8 sequence (P67778 whole entry): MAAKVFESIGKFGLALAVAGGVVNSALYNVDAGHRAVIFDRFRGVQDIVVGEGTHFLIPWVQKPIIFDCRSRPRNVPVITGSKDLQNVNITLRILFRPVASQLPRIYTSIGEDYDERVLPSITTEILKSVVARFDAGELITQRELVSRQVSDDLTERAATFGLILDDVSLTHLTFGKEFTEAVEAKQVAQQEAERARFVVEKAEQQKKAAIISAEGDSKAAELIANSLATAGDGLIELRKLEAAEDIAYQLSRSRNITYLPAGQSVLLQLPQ
T4 sequence (Q8BWM0 whole entry): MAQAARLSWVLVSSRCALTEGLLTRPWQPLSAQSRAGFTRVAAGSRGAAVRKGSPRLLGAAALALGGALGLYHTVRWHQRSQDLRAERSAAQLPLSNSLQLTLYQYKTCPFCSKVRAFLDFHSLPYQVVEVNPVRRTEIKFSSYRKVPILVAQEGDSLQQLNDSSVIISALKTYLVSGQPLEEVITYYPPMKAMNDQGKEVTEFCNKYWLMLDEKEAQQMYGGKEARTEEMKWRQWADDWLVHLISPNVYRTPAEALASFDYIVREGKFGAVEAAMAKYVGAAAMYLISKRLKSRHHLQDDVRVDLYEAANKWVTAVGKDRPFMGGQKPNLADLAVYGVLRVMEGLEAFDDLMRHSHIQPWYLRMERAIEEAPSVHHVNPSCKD
T11 sequence (Q91YE6 whole entry): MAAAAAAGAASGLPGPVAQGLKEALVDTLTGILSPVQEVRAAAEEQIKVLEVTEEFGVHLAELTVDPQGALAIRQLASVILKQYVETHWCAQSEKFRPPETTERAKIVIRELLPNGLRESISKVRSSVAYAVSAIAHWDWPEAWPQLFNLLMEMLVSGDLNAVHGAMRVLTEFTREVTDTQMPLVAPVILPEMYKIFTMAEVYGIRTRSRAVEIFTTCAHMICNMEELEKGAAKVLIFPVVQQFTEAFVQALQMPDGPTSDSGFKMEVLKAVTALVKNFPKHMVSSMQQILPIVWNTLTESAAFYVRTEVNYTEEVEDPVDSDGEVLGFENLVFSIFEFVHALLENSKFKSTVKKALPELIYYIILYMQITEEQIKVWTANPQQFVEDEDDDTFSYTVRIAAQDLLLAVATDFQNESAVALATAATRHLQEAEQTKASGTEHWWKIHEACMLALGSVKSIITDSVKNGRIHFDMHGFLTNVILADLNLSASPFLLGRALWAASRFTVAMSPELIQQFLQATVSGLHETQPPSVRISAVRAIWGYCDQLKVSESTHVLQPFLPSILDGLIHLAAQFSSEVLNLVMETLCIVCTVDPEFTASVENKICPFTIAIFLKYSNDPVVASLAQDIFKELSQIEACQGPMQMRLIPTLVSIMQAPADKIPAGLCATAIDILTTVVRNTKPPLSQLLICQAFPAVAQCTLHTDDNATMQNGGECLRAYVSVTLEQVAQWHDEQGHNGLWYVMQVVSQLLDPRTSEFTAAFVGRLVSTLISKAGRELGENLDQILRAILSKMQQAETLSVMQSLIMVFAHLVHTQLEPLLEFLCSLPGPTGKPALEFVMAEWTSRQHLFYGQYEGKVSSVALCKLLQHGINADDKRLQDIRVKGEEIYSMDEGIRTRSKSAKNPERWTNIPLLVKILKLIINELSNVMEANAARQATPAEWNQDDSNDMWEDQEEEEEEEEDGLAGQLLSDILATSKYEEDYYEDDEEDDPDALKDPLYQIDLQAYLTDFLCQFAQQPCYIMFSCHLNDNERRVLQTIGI
T1 sequence (Q99J47 whole entry): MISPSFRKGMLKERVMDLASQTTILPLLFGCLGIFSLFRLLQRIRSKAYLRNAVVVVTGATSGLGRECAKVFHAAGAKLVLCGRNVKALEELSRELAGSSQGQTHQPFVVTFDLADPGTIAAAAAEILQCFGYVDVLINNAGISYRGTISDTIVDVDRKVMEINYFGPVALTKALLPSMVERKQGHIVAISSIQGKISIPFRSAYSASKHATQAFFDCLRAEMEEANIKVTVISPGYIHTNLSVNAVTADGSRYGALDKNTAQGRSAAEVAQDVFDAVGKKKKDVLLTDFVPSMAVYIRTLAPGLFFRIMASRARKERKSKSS
T12 sequence (P59325 whole entry): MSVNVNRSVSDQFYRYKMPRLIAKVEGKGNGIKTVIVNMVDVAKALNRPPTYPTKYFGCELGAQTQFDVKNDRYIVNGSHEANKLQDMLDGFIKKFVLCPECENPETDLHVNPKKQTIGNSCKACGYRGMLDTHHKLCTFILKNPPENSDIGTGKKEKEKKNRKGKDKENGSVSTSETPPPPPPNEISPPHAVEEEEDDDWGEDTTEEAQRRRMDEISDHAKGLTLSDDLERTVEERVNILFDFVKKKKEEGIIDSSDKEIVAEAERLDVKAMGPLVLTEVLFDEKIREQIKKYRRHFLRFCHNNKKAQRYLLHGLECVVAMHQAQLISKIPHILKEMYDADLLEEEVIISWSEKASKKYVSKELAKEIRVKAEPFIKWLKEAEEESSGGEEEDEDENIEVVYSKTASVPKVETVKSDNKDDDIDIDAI
T2 sequence (P62259 whole entry): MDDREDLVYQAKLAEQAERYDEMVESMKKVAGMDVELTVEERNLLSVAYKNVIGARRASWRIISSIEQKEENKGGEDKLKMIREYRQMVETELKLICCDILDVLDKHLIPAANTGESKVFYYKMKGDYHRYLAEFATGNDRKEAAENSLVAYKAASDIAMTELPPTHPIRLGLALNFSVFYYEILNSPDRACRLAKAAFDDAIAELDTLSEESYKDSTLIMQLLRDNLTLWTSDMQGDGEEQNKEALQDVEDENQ
T5 sequence (Q8VC28 whole entry): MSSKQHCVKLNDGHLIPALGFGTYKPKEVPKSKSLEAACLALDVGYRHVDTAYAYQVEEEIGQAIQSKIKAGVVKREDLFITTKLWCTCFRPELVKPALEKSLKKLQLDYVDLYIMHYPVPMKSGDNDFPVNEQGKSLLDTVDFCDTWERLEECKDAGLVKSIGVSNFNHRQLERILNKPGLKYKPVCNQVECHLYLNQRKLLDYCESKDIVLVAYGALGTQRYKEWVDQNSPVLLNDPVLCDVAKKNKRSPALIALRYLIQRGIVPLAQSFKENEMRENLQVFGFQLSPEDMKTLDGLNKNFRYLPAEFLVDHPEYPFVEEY
T3 sequence (Q8BFY9 whole entry): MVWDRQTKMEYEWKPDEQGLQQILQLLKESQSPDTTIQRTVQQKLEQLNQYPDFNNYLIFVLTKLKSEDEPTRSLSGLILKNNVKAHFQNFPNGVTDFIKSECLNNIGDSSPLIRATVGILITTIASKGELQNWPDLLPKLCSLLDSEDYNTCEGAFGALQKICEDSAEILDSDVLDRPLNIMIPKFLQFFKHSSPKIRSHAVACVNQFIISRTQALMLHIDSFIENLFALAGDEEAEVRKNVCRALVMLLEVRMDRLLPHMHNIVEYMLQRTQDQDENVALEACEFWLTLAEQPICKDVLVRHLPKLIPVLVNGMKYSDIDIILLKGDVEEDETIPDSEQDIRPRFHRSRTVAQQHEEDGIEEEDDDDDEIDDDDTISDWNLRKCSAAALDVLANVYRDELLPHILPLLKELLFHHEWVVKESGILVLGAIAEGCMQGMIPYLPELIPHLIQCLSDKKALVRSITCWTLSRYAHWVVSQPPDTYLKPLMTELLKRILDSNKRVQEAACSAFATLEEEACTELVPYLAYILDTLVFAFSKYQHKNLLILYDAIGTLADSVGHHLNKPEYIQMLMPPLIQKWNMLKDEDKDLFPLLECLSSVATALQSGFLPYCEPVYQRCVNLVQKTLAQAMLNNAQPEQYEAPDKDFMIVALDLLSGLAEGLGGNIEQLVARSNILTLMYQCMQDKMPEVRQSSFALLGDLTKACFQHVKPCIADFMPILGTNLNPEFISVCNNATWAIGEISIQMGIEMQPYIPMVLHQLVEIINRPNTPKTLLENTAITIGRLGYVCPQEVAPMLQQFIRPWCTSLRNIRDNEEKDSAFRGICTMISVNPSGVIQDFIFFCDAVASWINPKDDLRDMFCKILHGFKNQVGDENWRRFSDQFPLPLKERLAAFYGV
T10 sequence (P00375 whole entry): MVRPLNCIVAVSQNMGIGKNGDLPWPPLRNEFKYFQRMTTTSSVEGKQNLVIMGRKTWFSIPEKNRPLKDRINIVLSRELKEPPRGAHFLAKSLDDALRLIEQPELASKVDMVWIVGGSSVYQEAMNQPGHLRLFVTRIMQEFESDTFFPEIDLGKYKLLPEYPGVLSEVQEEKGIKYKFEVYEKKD

With `C#CCCCC1(CC/C=C\C/C=C\C/C=C\CCCC(=O)NCCO)N=N1` [AEA-DA, (5Z,8Z,11Z)-N-(2-hydroxyethyl)-14-(3-(pent-4-yn-1-yl)-3H-diazirin-3-yl)tetradeca-5,8,11-trienamide], the Times observed amounted to 2 in experiment [1]; 8 in experiment [2]; 5 in experiment [3]; 3 in [4]; 4 in experiment [5]; 8 in experiment [6]. The Times observed in experiment [7] came out at 4; in experiment [8], 2; in experiment [9] it was 8; in experiment [10], 4; in experiment [11], 3; in experiment [12], 12.
